Test results taken from PubChem BioAssay (NCI).
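Where inhibition never reached the appropriate level, the endpoint shown equals the highest concentration tested. Otherwise, values were interpolated linearly from a five-concentration, 48-hour dose response in 96-well plates. GI50 marks 50% less growth. TGI: total growth inhibition.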

What was measured:
Experiment in all cases: NCI-60 cell line screen, 48 h; in the data active = GI50 below about 0.43 µM; inactive = the rest
SNB-19 CNS = test system: SNB-19 CNS
M14 melanoma = test system: M14 melanoma
OVCAR-4 ovarian = test system: OVCAR-4 ovarian
HOP-62 NSCLC = test system: HOP-62 NSCLC
OVCAR-5 ovarian = test system: OVCAR-5 ovarian
HCT-15 colon = test system: HCT-15 colon
HT29 colon = test system: HT29 colon
LOX IMVI melanoma = test system: LOX IMVI melanoma
K-562 leukemia = test system: K-562 leukemia
NCI-H522 lung = test system: NCI-H522 lung
SF-295 CNS = test system: SF-295 CNS
MALME-3M melanoma = test system: MALME-3M melanoma
UACC-62 melanoma = test system: UACC-62 melanoma
RPMI-8226 leukemia = test system: RPMI-8226 leukemia
SK-MEL-28 melanoma = test system: SK-MEL-28 melanoma
ACHN renal = test system: ACHN renal
SF-268 CNS = test system: SF-268 CNS
A498 renal = test system: A498 renal
HL-60(TB) leukemia = test system: HL-60(TB) leukemia
SK-OV-3 ovarian = test system: SK-OV-3 ovarian
U251 CNS = test system: U251 CNS
786-0 renal = test system: 786-0 renal
EKVX NSCLC = test system: EKVX NSCLC
IGROV1 ovarian = test system: IGROV1 ovarian
HCT-116 colon = test system: HCT-116 colon
NCI-H226 lung = test system: NCI-H226 lung
KM12 colon = test system: KM12 colon
SF-539 CNS = test system: SF-539 CNS
MOLT-4 leukemia = test system: MOLT-4 leukemia
SK-MEL-2 melanoma = test system: SK-MEL-2 melanoma
OVCAR-8 ovarian = test system: OVCAR-8 ovarian
HCC-2998 colon = test system: HCC-2998 colon
SK-MEL-5 melanoma = test system: SK-MEL-5 melanoma
A549 NSCLC = test system: A549 NSCLC
OVCAR-3 ovarian = test system: OVCAR-3 ovarian
NCI-H460 lung = test system: NCI-H460 lung
SNB-75 CNS = test system: SNB-75 CNS
SN12C renal = test system: SN12C renal
UACC-257 melanoma = test system: UACC-257 melanoma
KM20L2 colon = test system: KM20L2 colon
UO-31 renal = test system: UO-31 renal
CAKI-1 renal = test system: CAKI-1 renal
SW-620 colon = test system: SW-620 colon

CC(=O)[CH-]C(=O)c1ccccc1.CC(=O)[CH-]C(=O)c1ccccc1.O=S(=O)([O-])c1cc([O-])c2c([O-])cc(S(=O)(=O)[O-])cc2c1.[Na+].[Zr+4]
inactive: GI50 (SNB-19 CNS) 35.3 µM | GI50 (M14 melanoma) 52.2 µM | GI50 (OVCAR-4 ovarian) > 100 µM | GI50 (HOP-62 NSCLC) 76 µM | GI50 (OVCAR-5 ovarian) > 100 µM | GI50 (HCT-15 colon) > 100 µM | GI50 (HT29 colon) > 100 µM | GI50 (LOX IMVI melanoma) > 100 µM | GI50 (K-562 leukemia) > 100 µM | GI50 (NCI-H522 lung) > 100 µM | GI50 (SF-295 CNS) 69.8 µM | GI50 (MALME-3M melanoma) 53.1 µM | GI50 (UACC-62 melanoma) > 100 µM | GI50 (RPMI-8226 leukemia) > 100 µM | GI50 (SK-MEL-28 melanoma) > 100 µM | GI50 (ACHN renal) > 100 µM | GI50 (SF-268 CNS) > 100 µM | GI50 (A498 renal) > 100 µM | GI50 (HL-60(TB) leukemia) > 100 µM | GI50 (SK-OV-3 ovarian) > 100 µM | GI50 (U251 CNS) > 100 µM | GI50 (786-0 renal) 70.8 µM | GI50 (EKVX NSCLC) > 100 µM | GI50 (IGROV1 ovarian) > 100 µM | GI50 (HCT-116 colon) > 100 µM | GI50 (NCI-H226 lung) 30.4 µM | GI50 (KM12 colon) > 100 µM | GI50 (SF-539 CNS) > 100 µM | GI50 (MOLT-4 leukemia) 40.8 µM | GI50 (SK-MEL-2 melanoma) > 100 µM | GI50 (OVCAR-8 ovarian) > 100 µM | GI50 (HCC-2998 colon) > 100 µM | GI50 (SK-MEL-5 melanoma) > 100 µM | GI50 (A549 NSCLC) > 100 µM | GI50 (OVCAR-3 ovarian) > 100 µM | GI50 (NCI-H460 lung) 94.1 µM | GI50 (SNB-75 CNS) 49 µM | GI50 (SN12C renal) 97.3 µM | GI50 (UACC-257 melanoma) 87.2 µM | GI50 (KM20L2 colon) > 100 µM | GI50 (UO-31 renal) > 100 µM | GI50 (CAKI-1 renal) 60 µM | GI50 (SW-620 colon) > 100 µM
90.9 µM: TGI (NCI-H226 lung)
> 100 µM: TGI (SNB-19 CNS) | TGI (M14 melanoma) | TGI (OVCAR-4 ovarian) | TGI (HOP-62 NSCLC) | TGI (OVCAR-5 ovarian) | TGI (HCT-15 colon) | TGI (HT29 colon) | TGI (LOX IMVI melanoma) | TGI (K-562 leukemia) | TGI (NCI-H522 lung) | TGI (SF-295 CNS) | TGI (MALME-3M melanoma) | TGI (UACC-62 melanoma) | TGI (RPMI-8226 leukemia) | TGI (SK-MEL-28 melanoma) | TGI (ACHN renal) | TGI (SF-268 CNS) | TGI (A498 renal) | TGI (HL-60(TB) leukemia) | TGI (SK-OV-3 ovarian) | TGI (U251 CNS) | TGI (786-0 renal) | TGI (EKVX NSCLC) | TGI (IGROV1 ovarian) | TGI (HCT-116 colon) | TGI (KM12 colon) | TGI (SF-539 CNS) | TGI (MOLT-4 leukemia) | TGI (SK-MEL-2 melanoma) | TGI (OVCAR-8 ovarian) | TGI (HCC-2998 colon) | TGI (SK-MEL-5 melanoma) | TGI (A549 NSCLC) | TGI (OVCAR-3 ovarian) | TGI (NCI-H460 lung) | TGI (SNB-75 CNS) | TGI (SN12C renal) | TGI (UACC-257 melanoma) | TGI (KM20L2 colon) | TGI (UO-31 renal) | TGI (CAKI-1 renal) | TGI (SW-620 colon)
